# Assay results from ChEMBL document CHEMBL1681655, “Identification of a new series of non-peptidic NK3 receptor antagonists” (Bioorg Med Chem Lett, 2011).
# Target: T1, Neuromedin-K receptor (Homo sapiens, UniProt P29371)
# T1 sequence (P29371 whole entry): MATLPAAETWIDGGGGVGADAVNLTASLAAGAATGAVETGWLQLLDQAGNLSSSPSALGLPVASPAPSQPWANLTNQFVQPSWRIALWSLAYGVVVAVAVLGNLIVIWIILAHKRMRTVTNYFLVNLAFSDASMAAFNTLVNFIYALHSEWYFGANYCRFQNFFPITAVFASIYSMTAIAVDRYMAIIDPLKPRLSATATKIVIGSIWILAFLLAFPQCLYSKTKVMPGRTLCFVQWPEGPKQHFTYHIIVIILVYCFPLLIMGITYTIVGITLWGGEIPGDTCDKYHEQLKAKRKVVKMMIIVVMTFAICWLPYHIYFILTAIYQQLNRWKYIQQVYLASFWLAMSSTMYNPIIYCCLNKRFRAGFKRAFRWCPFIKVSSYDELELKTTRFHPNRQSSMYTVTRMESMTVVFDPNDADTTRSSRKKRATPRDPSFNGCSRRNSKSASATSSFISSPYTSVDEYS
# Assay: Displacement of [3H]Lu AE93103 from human NK3 receptor expressed in BHK cells
# Assay type: cell-based
row,Compound,Ki
1,CC(=O)NC1(c2ccccc2)CCN(C[C@H]2C[C@]2(C(=O)N(C)Cc2ccccc2)c2ccc(Cl)c(Cl)c2)CC1,83 nM
2,CC(=O)NC1(c2ccccc2)CCN(C[C@@H]2C[C@@]2(C(=O)N(C)Cc2ccc(F)cc2)c2ccc(F)cc2)CC1,67 nM
3,CC(=O)NC1(c2ccccc2)CCN(C[C@@H]2C[C@@]2(C(=O)N(C)Cc2ccc(F)cc2)c2ccc(C)cc2)CC1,37 nM
4,COc1ccc([C@]2(C(=O)N(C)Cc3ccc(F)cc3)C[C@H]2CN2CCC(NC(C)=O)(c3ccccc3)CC2)cc1,350 nM
5,CC(=O)NC1(c2ccccc2)CCN(C[C@@H]2C[C@@]2(C(=O)N(C)Cc2ccc(F)cc2)c2ccc(C(F)(F)F)cc2)CC1,1000 nM
6,CC(=O)NC1(c2ccccc2)CCN(C[C@@H]2C[C@@]2(C(=O)N(C)Cc2ccc(F)cc2)c2ccc(C#N)cc2)CC1,270 nM
7,CC(=O)NC1(c2ccccc2)CCN(C[C@@H]2C[C@@]2(C(=O)N(C)Cc2ccc(F)cc2)c2cccc(F)c2)CC1,140 nM
8,CC(=O)NC1(c2ccccc2)CCN(C[C@@H]2C[C@@]2(C(=O)N(C)Cc2ccc(F)cc2)c2cccc(C)c2)CC1,40 nM
9,COc1cccc([C@]2(C(=O)N(C)Cc3ccc(F)cc3)C[C@H]2CN2CCC(NC(C)=O)(c3ccccc3)CC2)c1,56 nM
10,CC(=O)NC1(c2ccccc2)CCN(C[C@@H]2C[C@@]2(C(=O)N(C)Cc2ccc(F)cc2)c2cccc(C(F)(F)F)c2)CC1,210 nM
11,CC(=O)NC1(c2ccccc2)CCN(C[C@@H]2C[C@@]2(C(=O)N(C)Cc2ccc(F)cc2)c2cccc(C#N)c2)CC1,1900 nM
12,CC(=O)NC1(c2ccccc2)CCN(C[C@@H]2C[C@@]2(C(=O)N(C)Cc2ccc(F)cc2)c2ccc(F)c(F)c2)CC1,47 nM
13,CC(=O)NC1(c2ccccc2)CCN(C[C@@H]2C[C@@]2(C(=O)N(C)Cc2ccc(F)cc2)c2cc(Cl)cc(Cl)c2)CC1,90 nM
14,CC(=O)NC1(c2ccccc2)CCN(C[C@@H]2C[C@@]2(C(=O)N(C)Cc2ccc(F)cc2)c2ccc3c(c2)OCO3)CC1,140 nM
15,CC(=O)NC1(c2ccccc2)CCN(C[C@@H]2C[C@]2(C(=O)N(C)Cc2ccc(F)cc2)c2cccs2)CC1,93 nM
16,CC(=O)NC1(c2ccccc2)CCN(C[C@@H]2C[C@@]2(C(=O)N(C)Cc2ccc(F)cc2)c2ccsc2)CC1,110 nM
17,CC(=O)NC1(c2ccccc2)CCN(CC2CC2(C(=O)N(C)Cc2cccc(C(F)(F)F)c2)c2ccc(Cl)c(Cl)c2)CC1 (racemic),50 nM

# Further lines, results first:
row,Ki,Compound
1,5.8 nM,CC(=O)NC1(c2ccccc2)CCN(C[C@@H]2C[C@@]2(C(=O)N(C)Cc2ccc(F)cc2)c2ccc(Cl)c(Cl)c2)CC1
2,36 nM,CC(=O)NC1(c2ccccc2)CCN(C[C@@H]2C[C@@]2(C(=O)N(C)Cc2ccc(F)cc2)c2ccc(Cl)cc2)CC1
3,32 nM,CC(=O)NC1(c2ccccc2)CCN(C[C@@H]2C[C@@]2(C(=O)N(C)Cc2ccc(F)cc2)c2cccc(Cl)c2)CC1
4,7.3 nM,CC(=O)NC1(c2ccccc2)CCN(C[C@@H]2C[C@@]2(C(=O)N(C)Cc2ccc(F)cc2)c2ccc(C)c(C)c2)CC1
5,20 nM,CC(=O)NC1(c2ccccc2)CCN(CC2CC2(C(=O)N(C)Cc2ccccc2Cl)c2ccc(Cl)c(Cl)c2)CC1 (racemic)
6,18 nM,CC(=O)NC1(c2ccccc2)CCN(CC2CC2(C(=O)N(C)Cc2ccccc2F)c2ccc(Cl)c(Cl)c2)CC1 (racemic)
7,5.3 nM,CC(=O)NC1(c2ccccc2)CCN(CC2CC2(C(=O)N(C)Cc2ccccc2C)c2ccc(Cl)c(Cl)c2)CC1 (racemic)
8,14 nM,COc1ccccc1CN(C)C(=O)C1(c2ccc(Cl)c(Cl)c2)CC1CN1CCC(NC(C)=O)(c2ccccc2)CC1 (racemic)
9,12 nM,CC(=O)NC1(c2ccccc2)CCN(CC2CC2(C(=O)N(C)Cc2cccc(F)c2)c2ccc(Cl)c(Cl)c2)CC1 (racemic)
10,24 nM,CC(=O)NC1(c2ccccc2)CCN(CC2CC2(C(=O)N(C)Cc2cccc(Cl)c2)c2ccc(Cl)c(Cl)c2)CC1 (racemic)
11,33 nM,COc1cccc(CN(C)C(=O)C2(c3ccc(Cl)c(Cl)c3)CC2CN2CCC(NC(C)=O)(c3ccccc3)CC2)c1 (racemic)
